# Non-standard residues stand in square brackets, D forms with d. Residues, ends and D or L forms follow the SMILES beside them. pT = C[C@@H](OP(=O)(O)O)[C@H](N)C(=O)O; pS = N[C@@H](COP(=O)(O)O)C(=O)O
# Biological target: T1, AP2 μ2 (Homo sapiens, UniProt Q96CW1)
# T1 construct: AP2_Mu__Q96CW1_160_435; GST (cleaved yes); made in house; host or cells: Escherichia coli BL21-Gold(DE3)
# T1 sequence (Q96CW1 160-435): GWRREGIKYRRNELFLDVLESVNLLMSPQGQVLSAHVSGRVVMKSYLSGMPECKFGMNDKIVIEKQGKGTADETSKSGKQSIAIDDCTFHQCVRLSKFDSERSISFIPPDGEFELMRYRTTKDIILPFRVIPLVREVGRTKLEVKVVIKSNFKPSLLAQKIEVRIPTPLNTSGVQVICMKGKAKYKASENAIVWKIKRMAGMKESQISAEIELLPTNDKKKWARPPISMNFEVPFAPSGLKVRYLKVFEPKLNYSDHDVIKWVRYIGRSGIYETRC
# Experiment: FP displacement assay, AP2 μ2
# Type: binding
# Settings: probe FITC-ATG9A 5 nM, 50 mM sodium phosphate pH 7.4, room temperature, at least three technical replicates, read-out: KD values ± SEM
# Method: (§1) FP experiments were performed as described previously (Kliche et al, [2021]). Shortly, in order to monitor the binding event, FITC‐labelled peptides were used (excitation 495 nm, emission: 535 nm) and the FP signal was recorded in mP on a SpectraMax iD5 Multi‐Mode Microplate Reader (Molecular Devices) by measuring the emitted light in two angels. The measurements were performed at room temperature and prepared in nonbinding black half area 96‐well microplates (Corning®; 50 μl/well). For measuring direct binding, that is saturation curves, a 1:1 dilution series of protein domain (25 μl/well) was generated in 50 mM sodium phosphate buffer pH 7.4 and the measurement performed with 5 nM FITC‐labelled peptide (25 μl/well). The buffer‐corrected values were subsequently plotted with PRISM and fitted to the quadratic equation (Gianni et al, [2005]).
# (§2) The 1:1 dilution series in this experiment was performed with the unlabelled peptide in 50 mM sodium phosphate buffer pH 7.4, so that each well‐contained unlabelled peptide (25 μl) at a certain concentration and pre‐formed complex (25 μl). The KD values of this indirectly monitored binding event were calculated as described previously (Nikolovska‐Coleska et al, [2004]). All measurements were at least in technical triplicates as well as biological duplicates when indicated. An amplitude shift between repeat measurements in the displacement experiments was occasionally observed due to variations in the protein preparations. If that was the case, the “active” protein concentration was back‐calculated according to the quadratic equation from the saturation curves performed in parallel. By comparing the active protein concentrations in the complex between different protein preparations, the amplitude was normalised.
row,Kd [µM],SMILES
1,1.29 ± 0.06,CC(=O)N[C@@H](Cc1ccccc1)C(=O)N1CCC[C@H]1C(=O)N[C@@H](CO)C(=O)N[C@@H](CO)C(=O)N[C@@H](Cc1ccc(O)cc1)C(=O)N[C@H](C(=O)N[C@@H](CCCCN)C(=O)N[C@@H](CC(C)C)C(=O)N[C@@H](CC(C)C)C(=O)N[C@@H](CCC(=O)O)C(=O)N[C@@H](CCC(=O)O)C(=O)N[C@@H](CC(N)=O)C(=O)N[C@@H](CCC(=O)O)C(=O)N[C@H](C(=O)N[C@@H](CCC(=O)O)C(=O)N[C@@H](C)C(N)=O)[C@@H](C)O)[C@@H](C)O [BAIAPL1_392–407 wt] (Ac-FPSSYTKLLEENETEA-NH2)
2,3.7 ± 0.1,CC[C@H](C)[C@H](NC(=O)[C@@H](NC(=O)[C@@H]1CCCN1C(=O)[C@H](CO)NC(=O)[C@H](CO)NC(=O)[C@H](C)NC(=O)[C@@H]1CCCN1C(=O)[C@H](CCSC)NC(=O)[C@@H]1CCCN1C(=O)[C@H](CCC(N)=O)NC(=O)[C@H](Cc1ccc(O)cc1)NC(=O)[C@@H]1CCCN1C(=O)[C@@H](NC(=O)[C@@H](NC(=O)[C@H](CCSC)NC(C)=O)[C@@H](C)O)[C@@H](C)CC)C(C)C)C(=O)N[C@@H](CS)C(N)=O [PCBP1_179–194 wt] (Ac-MTIPYQPMPASSPVIC-NH2)
3,0.67 ± 0.04,CC[C@H](C)[C@H](NC(=O)[C@@H](NC(=O)[C@@H]1CCCN1C(=O)[C@H](COP(=O)(O)O)NC(=O)[C@H](CO)NC(=O)[C@H](C)NC(=O)[C@@H]1CCCN1C(=O)[C@H](CCSC)NC(=O)[C@@H]1CCCN1C(=O)[C@H](CCC(N)=O)NC(=O)[C@H](Cc1ccc(O)cc1)NC(=O)[C@@H]1CCCN1C(=O)[C@@H](NC(=O)[C@@H](NC(=O)[C@H](CCSC)NC(C)=O)[C@@H](C)O)[C@@H](C)CC)C(C)C)C(=O)N[C@@H](CS)C(N)=O [PCBP1_179–194 pS] (Ac-MTIPYQPMPAS[pS]PVIC-NH2)
4,0.93 ± 0.01,CC(=O)N[C@@H](Cc1ccccc1)C(=O)N1CCC[C@H]1C(=O)N[C@@H](CO)C(=O)N[C@@H](COP(=O)(O)O)C(=O)N[C@@H](Cc1ccc(O)cc1)C(=O)N[C@H](C(=O)N[C@@H](CCCCN)C(=O)N[C@@H](CC(C)C)C(=O)N[C@@H](CC(C)C)C(=O)N[C@@H](CCC(=O)O)C(=O)N[C@@H](CCC(=O)O)C(=O)N[C@@H](CC(N)=O)C(=O)N[C@@H](CCC(=O)O)C(=O)N[C@H](C(=O)N[C@@H](CCC(=O)O)C(=O)N[C@@H](C)C(N)=O)[C@@H](C)O)[C@@H](C)O [BAIAPL1_392–407 pS] (Ac-FPS[pS]YTKLLEENETEA-NH2)

# Biological target: T2, PDCD6IP Alix V domain (Homo sapiens, UniProt Q8WUM4)
# T2 construct: GST (cleaved yes); made in house; host or cells: Escherichia coli BL21-Gold(DE3)
# T2 sequence (Q8WUM4 360-702): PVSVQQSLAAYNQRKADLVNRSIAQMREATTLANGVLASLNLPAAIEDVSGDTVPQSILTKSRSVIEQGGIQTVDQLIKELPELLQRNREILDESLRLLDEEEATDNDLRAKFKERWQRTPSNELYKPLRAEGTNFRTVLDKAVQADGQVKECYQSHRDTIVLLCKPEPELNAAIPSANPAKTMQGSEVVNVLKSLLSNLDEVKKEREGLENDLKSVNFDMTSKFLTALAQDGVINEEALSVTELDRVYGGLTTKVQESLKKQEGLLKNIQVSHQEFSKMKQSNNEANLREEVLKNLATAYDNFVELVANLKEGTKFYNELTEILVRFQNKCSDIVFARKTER
# Experiment: FP displacement assay, PDCD6IP Alix V domain
# Type: binding
# Settings: probe FITC-HIV1_Gag 5 nM, 50 mM sodium phosphate pH 7.4, room temperature, at least three technical replicates, read-out: KD values ± SEM
# Method: as §1, §2
row,Kd [µM],SMILES
1,116 ± 20,CC(=O)N[C@H](C(=O)N[C@@H](COP(=O)(O)O)C(=O)N1CCC[C@H]1C(=O)N[C@@H](CC(C)C)C(=O)N[C@H](C(=O)N[C@@H](CO)C(=O)N[C@@H](CC(C)C)C(=O)N[C@@H](Cc1ccc(O)cc1)C(=O)N1CCC[C@H]1C(=O)N[C@@H](C)C(=O)N[C@@H](CC(C)C)C(=O)N[C@@H](CCC(=O)O)C(=O)N[C@@H](C)C(=O)N[C@@H](CCCNC(=N)N)C(=O)N[C@@H](C)C(=O)N[C@@H](CC(C)C)C(N)=O)C(C)C)[C@@H](C)O [OTUD5_507–522 pS] (Ac-T[pS]PLVSLYPALEARAL-NH2)
2,68 ± 6,CC(=O)N[C@H](C(=O)N[C@@H](CO)C(=O)N1CCC[C@H]1C(=O)N[C@@H](CC(C)C)C(=O)N[C@H](C(=O)N[C@@H](CO)C(=O)N[C@@H](CC(C)C)C(=O)N[C@@H](Cc1ccc(O)cc1)C(=O)N1CCC[C@H]1C(=O)N[C@@H](C)C(=O)N[C@@H](CC(C)C)C(=O)N[C@@H](CCC(=O)O)C(=O)N[C@@H](C)C(=O)N[C@@H](CCCNC(=N)N)C(=O)N[C@@H](C)C(=O)N[C@@H](CC(C)C)C(N)=O)C(C)C)[C@@H](C)O [OTUD5_507–522 wt] (Ac-TSPLVSLYPALEARAL-NH2)
3,13 ± 2,CC[C@H](C)[C@H](NC(=O)[C@H](CCCCN)NC(=O)[C@H](CC(C)C)NC(=O)[C@@H]1CCCN1C(=O)[C@H](COP(=O)(O)O)NC(=O)[C@@H](NC(=O)[C@H](CCC(N)=O)NC(=O)[C@@H]1CCCN1C(=O)[C@H](Cc1ccc(O)cc1)NC(=O)[C@H](CC(C)C)NC(=O)[C@@H]1CCCN1C(=O)[C@H](CCCNC(=N)N)NC(=O)[C@H](CC(C)C)NC(=O)[C@@H]1CCCN1C(=O)[C@H](CO)NC(=O)[C@H](C)NC(C)=O)[C@@H](C)CC)C(N)=O [FOXK1_212–227 pS] (Ac-ASPLRPLYPQI[pS]PLKI-NH2)
4,25 ± 3,CC[C@H](C)[C@H](NC(=O)[C@H](CCCCN)NC(=O)[C@H](CC(C)C)NC(=O)[C@@H]1CCCN1C(=O)[C@H](CO)NC(=O)[C@@H](NC(=O)[C@H](CCC(N)=O)NC(=O)[C@@H]1CCCN1C(=O)[C@H](Cc1ccc(O)cc1)NC(=O)[C@H](CC(C)C)NC(=O)[C@@H]1CCCN1C(=O)[C@H](CCCNC(=N)N)NC(=O)[C@H](CC(C)C)NC(=O)[C@@H]1CCCN1C(=O)[C@H](CO)NC(=O)[C@H](C)NC(C)=O)[C@@H](C)CC)C(N)=O [FOXK1_212–227 wt] (Ac-ASPLRPLYPQISPLKI-NH2)

# Biological target: T3, RANBP2 RanBD4 (Homo sapiens, UniProt P49792)
# T3 construct: GST (cleaved yes); made in house; host or cells: Escherichia coli BL21-Gold(DE3)
# T3 sequence (P49792 2924-3050): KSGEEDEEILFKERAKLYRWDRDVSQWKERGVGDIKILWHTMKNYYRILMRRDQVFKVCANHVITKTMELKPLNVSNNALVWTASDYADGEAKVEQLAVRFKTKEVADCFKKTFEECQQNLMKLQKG
# Experiment: FP displacement assay, RANBP2 RanBD4
# Type: binding
# Settings: probe FITC-C7orf25 5 nM, 50 mM sodium phosphate pH 7.4, room temperature, at least three technical replicates, read-out: KD values ± SEM
# Method: as §1, §2
row,Kd [µM],SMILES
1,334 ± 35,CC(=O)N[C@@H](Cc1c[nH]cn1)C(=O)N[C@@H](CC(C)C)C(=O)N1CCC[C@H]1C(=O)N[C@@H](CC(C)C)C(=O)N[C@@H](CC(N)=O)C(=O)N[C@@H](CO)C(=O)N1CCC[C@H]1C(=O)N[C@@H](CC(C)C)C(=O)N1CCC[C@H]1C(=O)NCC(=O)N[C@@H](CO)C(=O)N[C@@H](CCC(=O)O)C(=O)N[C@@H](CC(C)C)C(=O)N[C@H](C(=O)N[C@@H](CCCCN)C(=O)N[C@@H](Cc1ccc(O)cc1)C(N)=O)[C@@H](C)O [INTS6_145–159 wt] (Ac-HLPLNSPLPGSELTKY-NH2)
2,167 ± 21,CC(=O)N[C@@H](CCCCN)C(=O)N[C@@H](Cc1ccc(O)cc1)C(=O)N[C@@H](CO)C(=O)N[C@@H](CC(=O)O)C(=O)N[C@@H](CC(=O)O)C(=O)N[C@H](C(=O)N1CCC[C@H]1C(=O)N[C@@H](CC(C)C)C(=O)N1CCC[C@H]1C(=O)N[C@H](C(=O)N1CCC[C@H]1C(=O)N[C@@H](CO)C(=O)N[C@@H](Cc1ccc(O)cc1)C(=O)N[C@@H](CCCCN)C(=O)N[C@@H](Cc1ccc(O)cc1)C(=O)N[C@@H](CC(N)=O)C(N)=O)[C@@H](C)OP(=O)(O)O)[C@@H](C)O [DHX38_260–275 pS] (Ac-KYSDDTPLP[pT]PSYKYN-NH2)
3,1500,CC(=O)N[C@@H](CCCCN)C(=O)N[C@@H](Cc1ccc(O)cc1)C(=O)N[C@@H](CO)C(=O)N[C@@H](CC(=O)O)C(=O)N[C@@H](CC(=O)O)C(=O)N[C@H](C(=O)N1CCC[C@H]1C(=O)N[C@@H](CC(C)C)C(=O)N1CCC[C@H]1C(=O)N[C@H](C(=O)N1CCC[C@H]1C(=O)N[C@@H](CO)C(=O)N[C@@H](Cc1ccc(O)cc1)C(=O)N[C@@H](CCCCN)C(=O)N[C@@H](Cc1ccc(O)cc1)C(=O)N[C@@H](CC(N)=O)C(N)=O)[C@@H](C)O)[C@@H](C)O [DHX38_260–275 wt] (Ac-KYSDDTPLPTPSYKYN-NH2)
4,733 ± 128,CC(=O)N[C@@H](Cc1c[nH]cn1)C(=O)N[C@@H](CC(C)C)C(=O)N1CCC[C@H]1C(=O)N[C@@H](CC(C)C)C(=O)N[C@@H](CC(N)=O)C(=O)N[C@@H](COP(=O)(O)O)C(=O)N1CCC[C@H]1C(=O)N[C@@H](CC(C)C)C(=O)N1CCC[C@H]1C(=O)NCC(=O)N[C@@H](CO)C(=O)N[C@@H](CCC(=O)O)C(=O)N[C@@H](CC(C)C)C(=O)N[C@H](C(=O)N[C@@H](CCCCN)C(=O)N[C@@H](Cc1ccc(O)cc1)C(N)=O)[C@@H](C)O [INTS6_145–159 pS] (Ac-HLPLN[pS]PLPGSELTKY-NH2)
